Laboratory results taken from US20020002294A1, “Estrogenic compounds as antiangiogenic agents” (priority 1997, published 2002).

Experiments:
[1] = tested on: tubulin; experiment: inhibition of [3H]colchicine binding to tubulin; settings: 100 μM inhibitor, 1.0 μM tubulin, 2 μM [3H]colchicine, 10 min at 37° C.; ± S.D.
Experimental: Incubation was for 10 min. at 37° C.
Incubation was for 10 mi. at 37° C. Average values obtained in three independent experiments are presented in the table, except for 2-methoxyestrone, which was only examined twice. S.D., standard deviation.

[2] = tested on: tubulin; experiment: inhibition of tubulin polymerization in vitro (turbidity at 350 nm); type: biochemical; settings: read-out: IC50 (concentration required to inhibit tubulin polymerization by 50%); mean ± S.D.; method of Example 1
Experimental: Anti-mitotic activity can be evaluated by testing the ability of an estradiol derivative to inhibit tubulin polymerization and microtubule assembly in vitro. Microtubule assembly is followed in a Gilford recording spectrophotometer (model 250 or 2400S) equipped with electronic temperature controllers. A reaction mixture (all concentrations refer to a final reaction volume of […]) contains 1.0 M monosodium glutamate (ph 6.6), 1. omg/ml (10 μM) tubulin, 1.0 mM MgCl2, 4% (v/v) dimethylsulfoxide and 20-75μM of a composition to be tested. The 0.24 ml reaction mixtures are incubated for 15 min. at 37° C. and then chilled on ice. After addition of 10p1 2.5mM GTP, the reaction mixture is transferred to a cuvette at 0° C., and a baseline established. At time zero, the temperature controller of the spectrophotometer is set at 37° C. Microtubule assembly is evaluated by increased turbity at 350 nm.
A. Each reaction mixture (all concentrations refer to the final reaction volume of 0.25 ml) contained 1.0 M monosodium glutamate (pH 6.6), 1.0 mg/ml (10 μM) tubulin, 1.0 mM MgCl2, 4% (v/v) dimethylsulfoxide, and either 0 (curve 1), 20μM (curve 2), 40 μM (curve 3), or 75 μM (curve 4) 2-methoxyestradiol. The 0.24 ml reaction mixtures were incubated for 15 min. at 37° C and chilled on ice. After addition of 10 μl of 2.5 mM GTP the reaction mixtures were transferred to cuvettes held at 0° C., and baselines were established. At time zero the temperature controller was set at 37° C. At the times indicated by the vertical dashed lines the temperature controller was set at the indicated temperatures.
B. Each reaction mixture contained 0.8 M monosodium glutamate (pH 6.6), 1.2 mg/ml (12 μM) tubulin, 4% (v/v) dimethylsulfoxide, and either 0 (curve 1), 1.0 FM (curve 2), 2.0 ,M (curve 3), 3.0 μM (curve 4), or 4.0 μM (curve 5) 2-methoxyestradiol. The 0.24 ml reaction mixtures were incubated for 15 min. at 26° C. and chilled on ice. After addition of 10μl of 10 mM GTP the reaction mixtures were transferred to cuvettes held at 0° C., and baselines were established. At time zero the temperature controller was set at 26° C. At the time indicated by vertical dashed line the temperature controller was set at 0° C.
The method is given in Example 1.
S.D., standard deviation.

[3] = tested on: 8 human breast cancer cell lines; experiment: human tumor cell panel assay in vitro, breast panel; type: cell-based; set-up: key to Most Sensitive Cell Lines in Human Tumor Cell Panel Assay: Breast: Most sensitive cell panes are marked with ✓; settings: for Most Sensitive Cell Lines in Human Tumor Cell Panel Assay: Breast: 8 cell lines, only MCF-7 and T-47D express estrogen and progesterone receptors
From the text: (§1) The tubulin activities, breast cancer cell line activities, and the cell panels most sensitive to selected analogs are shown in Tables 3 and 4.

[4] = tested on: tubulin; experiment: tubulin activities of 2-ME analogs (Table 3); type: biochemical
[5] = target: T1, rat uterine cytosolic estrogen receptor (Rattus norvegicus, UniProt P06211); experiment: Relative Binding Affinity to estrogen receptor; settings: at 0°; 3H-Estradiol=100
T1 construct: from tissue; host or cells: rat uterine cytosol (per the result head)
T1 sequence (P06211 1-600): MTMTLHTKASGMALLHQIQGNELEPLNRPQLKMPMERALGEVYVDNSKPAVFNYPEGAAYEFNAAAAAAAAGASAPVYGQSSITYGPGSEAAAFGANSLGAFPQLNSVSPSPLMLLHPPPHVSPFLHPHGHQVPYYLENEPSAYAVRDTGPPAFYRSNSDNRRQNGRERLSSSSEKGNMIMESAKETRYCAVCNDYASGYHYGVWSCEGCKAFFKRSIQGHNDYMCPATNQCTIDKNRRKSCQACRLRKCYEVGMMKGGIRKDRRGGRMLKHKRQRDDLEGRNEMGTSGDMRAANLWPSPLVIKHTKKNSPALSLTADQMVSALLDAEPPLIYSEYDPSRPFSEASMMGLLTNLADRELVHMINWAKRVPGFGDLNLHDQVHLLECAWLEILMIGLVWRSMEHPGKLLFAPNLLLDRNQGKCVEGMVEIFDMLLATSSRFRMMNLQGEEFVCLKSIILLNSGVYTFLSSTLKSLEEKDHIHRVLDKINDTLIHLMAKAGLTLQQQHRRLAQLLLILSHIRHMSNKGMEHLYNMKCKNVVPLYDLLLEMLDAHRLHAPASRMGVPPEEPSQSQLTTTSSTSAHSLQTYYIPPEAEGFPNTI
From the text: as §1

[6] = tested on: MDA-MB-435 estrogen receptor-negative human breast carcinoma cells; experiment: In Vivo Tumor Growth Inhibition; set-up: species or system SCID mice
Experimental: To determine the antitumor activity of 2-ME and derivatives, SCID mice were s.c. inoculated with 10^6 MDA-MB-435 estrogen receptor-negative human breast carcinoma cells. Treatment was initiated on day 12 when tumor volumes reached 75-100 mm3 in volume. Drugs were suspended in 0.5 g/100 ml of carboxymethylcellulose with sterile glass beads, vortexed for 5 minutes, and administered p.o. in a volume of 0.1 ml. Control mice received 0.1 ml of carboxymethylcellulose p.o. Serial caliper measurements of perpendicular diameters were used to calculate tumor volume using the following: (shortest diameter)^2×(longest diameter)×0.52. T/C was calculated as the volume of treated tumors over the volume of control tumors. A smaller number indicates a greater inhibition of tumor growth.

[7] = tested on: Renal cell lines; experiment: Human Tumor Cell Panel Assay in vitro, renal panel; type: cell-based; set-up: key: Most sensitive cell panes are marked with ✓
From the text: as §1

[8] = tested on: Ovarian cell lines (especially OVCAR-3); experiment: Human Tumor Cell Panel Assay in vitro, ovarian panel; type: cell-based; set-up: key: Most sensitive cell panes are marked with ✓
From the text: as §1

[9] = tested on: CNS cell lines; experiment: Human Tumor Cell Panel Assay in vitro, CNS panel; type: cell-based; set-up: key: Most sensitive cell panes are marked with ✓
From the text: as §1

[10] = tested on: Melanoma cell lines; experiment: Human Tumor Cell Panel Assay in vitro, melanoma panel; type: cell-based; set-up: key: Most sensitive cell panes are marked with ✓
From the text: as §1

[11] = tested on: corneal neovascularization; experiment: Mouse Corneal Micropocket Assay; type: in vivo, mice; settings: 150 mg/kg, daily oral, 5 days
Experimental: Five- to 7-week-old SCID female mice were obtained from Massachusetts General Hospital (Boston, Mass.), Immunocompetent 7-9-week-old female C57BL/6 mice were obtained from ARCH Technical Services, Children's Hospital (Boston, Mass.). All animal studies were conducted according to protocols approved by the Animal Ethics Committee of Children's Hospital. Animals were anesthetized in a methoxyflurane (Pittman-Moore, Mundelein, Ill.) chamber prior to all procedures and were observed until fully recovered. Animals were sacrificed by a lethal dose of methoxyflurane.
Mouse Corneal Micropocket Assay To study the effect of microtubule inhibitors on angiogenesis in vivo, a model of angiogenesis in the mouse cornea was used in […] mice as described previously (Kenyon, B. B., Voest, E. E., Chen, C. C., Folkman, J., and D'Amato, R. J. A model of angiogenesis in the mouse cornea. Invest. Ophthalmol. & Visual Sci., 76: 1625-1632, 1996). In brief, after animals were anesthetized, corneal micropockets were created in both eyes with a modified von Graefe cataract knife. Into each pocket, a 0.4 mm ×0.4 mm×0.2 mm sucrose aluminum sulfate (Bukh Meditee, Copenhagen, Denmark) pellet coated with hydron polymer type NCC (IHN Sciences, New Brunswick, N.J.) containing 80 ng of bFGF or 160 ng of human recombinant […] (gift from Reprogenesis, Cambridge, Mass.) was implanted 1.0-1.2 mm from the limbal vessels (bFGF experiments) or 0.5-0.7 mm from the limbus (VEGF experiments). Erythromycin ointment (E. Fougera, Melville, N.Y.) was applied to each operated eye. The sucralfate acts to stabilize the growth factor and to slow its release from the hydron. Before testing each drug in this assay, we found the maximal dose that could be administered daily for 5 consecutive days without producing signs of toxicity (i.e., no hair loss, diarrhea, infection, lethargy, or weight loss). The treated groups received daily oral administration for 5 consecutive days of the stated dosage of 2-ME or a derivative thereof suspended in 0.5 g/100 ml of carboxymethylcellulose.
Treatment was started on the day of pellet implantation. […] For this purpose, the eyes of the mice were examined by slit-lamp biomicroscopy. Area of corneal neovascularization was calculated using a modified formula for a half-ellipse: Area (mm^2)=[π×clock hours×length (mm)×0.2 mm]. This formula provides the most accurate approximation of the area of neovascularization that grows toward the pellet. (Kenyon, B. B., Voest, E. E., Chen, C. C., Folkman, J., and D'Amato, R. J. A model of angiogenesis in the mouse cornea. Invest. Ophthalmol. & Visual Sci., 76: 1625-1632, 1996).

C#CC1(O)CCC2C3CCc4cc(O)ccc4C3CCC21C (stereo not shown) [17-Ethynylestradiol, reference compound]
Percentage Inhibition of colchicine binding to tubulin [1]: 50 ± 7%
IC50 [2]: 10 ± 2 µM

COc1cc2c(cc1O)CCC1C2CCC2(C)C(=O)CCC12 (stereo not shown) [2-Methoxyestrone, reference compound]
Percentage Inhibition of colchicine binding to tubulin [1]: 57 ± 6%
IC50 [2]: 8.8 ± 1 µM

CCNc1cc2c(cc1O)CCC1C2CCC2(C)C(O)CCC12 (stereo not shown) [NSC 673652]
IC50 ([3]; Homo sapiens, cell panel assay in vitro, two values per cell separated by /, read-out: Tumor Panel: Average log IC50(Molar) against 8 human breast cancer cell lines (converted)): 2 µM
Tumor Panel: Average log IC50(Molar) against 8 human breast cancer cell lines ([3]; cell panel assay in vitro, two values per cell separated by /): −5.7/−5.7 log Molar
IC50 [4]: ~2 µM
RBA, Relative Binding Affinity to rat uterine cytosolic estrogen receptor [5]: 0.35

CCOc1cc2c(cc1O)C(=NO)CC1C2CCC2(C)C(O)CCC12 (stereo not shown) [NSC 680185]
T/C (volume of treated tumors over volume of control tumors) ([6]; 150 mg/kg p.o., duration not stated): 0.9
Most Sensitive Cell Lines in Human Tumor Cell Panel Assay: Renal [7]: ✓
Most Sensitive Cell Lines in Human Tumor Cell Panel Assay: Ovarian [8]: ✓
Most Sensitive Cell Lines in Human Tumor Cell Panel Assay: Breast [3]: ✓
Most Sensitive Cell Lines in Human Tumor Cell Panel Assay: CNS [9]: ✓
RBA, Relative Binding Affinity to rat uterine cytosolic estrogen receptor [5]: <0.001
Most Sensitive Cell Lines in Human Tumor Cell Panel Assay: Melanoma [10]: ✓

C[C@]12CC[C@@H]3c4cc(OCC(F)(F)F)c(O)cc4/C(=N/O)C[C@H]3[C@@H]1CC[C@@H]2O [NSC 681683]
tumor growth inhibition, comparison in words (FIG. 4) ([6]; FIG. 4): performed approximately as well as the derivative 681684
Most Sensitive Cell Lines in Human Tumor Cell Panel Assay: Ovarian [8]: ✓
Most Sensitive Cell Lines in Human Tumor Cell Panel Assay: Breast [3]: ✓
Most Sensitive Cell Lines in Human Tumor Cell Panel Assay: CNS [9]: ✓
IC50 [4]: 0.5 µM
inhibition in corneal pocket assay [11]: 22%
RBA, Relative Binding Affinity to rat uterine cytosolic estrogen receptor [5]: <0.0074
Most Sensitive Cell Lines in Human Tumor Cell Panel Assay: Melanoma [10]: ✓

CCOc1cc2c(cc1O)C(=NOC)CC1C2CCC2(C)C(O)CCC12 (stereo not shown) [NSC 683125]
Most Sensitive Cell Lines in Human Tumor Cell Panel Assay: Renal [7]: ✓
Most Sensitive Cell Lines in Human Tumor Cell Panel Assay: Breast [3]: ✓
inhibition in corneal pocket assay [11]: 23%
RBA, Relative Binding Affinity to rat uterine cytosolic estrogen receptor [5]: <0.001
Most Sensitive Cell Lines in Human Tumor Cell Panel Assay: Melanoma [10]: ✓
